Common to all, as to experiment: Whole blood assay, LPS stimulation, MSD cytokine detection
The subject of one test is IL-1β. Format: cell-based, bovine. As to conditions: fresh whole bovine blood, LPS stimulation; drug concentration giving overstimulation (OS) of IL-1β. How it is done:
(§1) Compounds of the invention were evaluated against a positive control for their ability to inhibit LPS-induced IL-1p and TNF-α as an overall evaluation of relative potency and modulation of target pathways.
(§2) In the bovine whole blood in vitro screening assay the inhibition of TNFα as induced by stimulation by lipopolysaccharide (LPS) and as measured by half the maximal inhibitory concentration (IC50) is recognized as the primary biomarker of immunomodulation potency upon pretreatment with the compounds of the invention. IL-1β is a mediator of the inflammation response and is involved in a number of cellular activities including proliferation, differentiation and apoptosis. IL-1β is also released upon cellular stress or cytotoxicity or upon TLR stimulation. In the bovine whole blood assay the stimulation of IL-1β release upon increasing concentration of test compound is seen as a potential cellular toxicity signal as induced by the test compound. In order to estimate a therapeutic index from the in vitro assay a differential between the TNFα IC50 (immunomodulation potency) versus the perceived cellular toxicity concentration (IL-1β release or overstimulation) was utilized. […] As the in vitro assay index approaches 1 it is proposed that the balance between immunomodulation and cytotoxicity would be too narrow in order to achieve an efficacious dose in vivo.

The next test relates to IL-6. The test is classed as cell-based. As to conditions: fresh whole bovine blood.
The test system of a further test is TNF-α. The test is classed as cell-based. To be noted: fresh whole bovine blood. How it is done:
as §1, §2

Structures are written as SMILES. Where “and” joins values, the source holds several entries; their conditions need not be identical. Equal values may be shown once.

These results are taken from patent publication US12390441B2, “Immunomodulating o-het/aryl azalides” (Zoetis Services LLC, priority 2020, dated 2025).

With `CC[C@H]1OC(=O)[C@H](C)[C@@H](O)[C@H](C)[C@@H](O[C@@H]2O[C@H](C)C[C@H](N(C)C(=O)N(C)c3ccccc3)[C@H]2Oc2ccc(Cl)nc2)[C@](C)(O)C[C@@H](C)CN[C@H](C)[C@@H](O)[C@]1(C)O` [Example C-33], in the test with IL-1β, the “IL-1ß OS of LPS” value was 16 µM. Also, the IC50 (as a rule, the concentration at which inhibition is half-maximal) is below 1 µM in the test on IL-6 and 6 µM with TNF-α.
Consider `CC[C@H]1OC(=O)[C@H](C)[C@@H](O[C@H]2C[C@@](C)(OC)[C@](O)(CNCC3CC3)[C@H](C)O2)[C@H](C)[C@@H](O[C@@H]2O[C@H](C)C[C@H](N(C)C)[C@H]2Oc2ccc(F)cc2)[C@](C)(O)C[C@@H](C)CN[C@H](C)[C@@H](O)[C@]1(C)O` [Example E-37], for which the “IL-1ß OS of LPS” value in the test on IL-1β stood at 16 µM. In addition, the IC50 in the test with IL-6 stood at 17 µM; in the test with TNF-α, 6 µM.
For the molecule `CC[C@H]1OC(=O)[C@H](C)[C@@H](O[C@H]2C[C@@](C)(OC)[C@](O)(CNCC3CC3)[C@H](C)O2)[C@H](C)[C@@H](O[C@@H]2O[C@H](C)C[C@H](NC)[C@H]2Oc2ccccc2)[C@](C)(O)C[C@@H](C)CN[C@H](C)[C@@H](O)[C@]1(C)O` [Example E-132], the “IL-1ß OS of LPS” value in the test with IL-1β worked out at 100 µM. The values for the IC50 in the test on IL-6 and in the test with TNF-α were 60 µM and 31 µM, respectively.
The matching figures for `CC[C@H]1OC(=O)[C@H](C)[C@@H](O)[C@H](C)[C@@H](O[C@@H]2O[C@H](C)C[C@H](N(C)C(=O)N(C)c3ccccc3)[C@H]2Oc2ccccc2Cl)[C@](C)(O)C[C@@H](C)CN[C@H](C)[C@@H](O)[C@]1(C)O` [Example C-38]: 16 µM, 26 µM and 5 µM.
On to `CC[C@H]1OC(=O)[C@H](C)[C@@H](O[C@H]2C[C@@](C)(OC)[C@@H](O)[C@H](C)O2)[C@H](C)[C@@H](O[C@@H]2O[C@H](C)C[C@H](NC)[C@H]2Oc2ccc(OC)c(OC(C)C)c2)[C@](C)(O)C[C@@H](C)CN(C)[C@H](C)[C@@H](O)[C@]1(C)O` [Example A-34], for which the “IL-1ß OS of LPS” value in the test with IL-1β was above 250 µM. Moreover, the IC50 in the test with IL-6 was 21 µM; in the test with TNF-α, 4 µM.
Take `CCCNC[C@]1(O)[C@H](C)O[C@@H](O[C@H]2[C@H](C)[C@@H](O[C@@H]3O[C@H](C)C[C@H](N(C)C)[C@H]3Oc3ccc(OC)cc3)[C@](C)(O)C[C@@H](C)CN[C@H](C)[C@@H](O)[C@](C)(O)[C@@H](CC)OC(=O)[C@@H]2C)C[C@@]1(C)OC` [Example E-43]: in the test with IL-1β, the “IL-1ß OS of LPS” value was 40 µM. Moreover, it took 16 µM to reach half-maximal inhibition in the test on TNF-α (IC50).
Consider `CCOc1cccc(O[C@H]2[C@H](O[C@@H]3[C@@H](C)[C@H](O)[C@@H](C)C(=O)O[C@H](CC)[C@@](C)(O)[C@H](O)[C@@H](C)NC[C@H](C)C[C@@]3(C)O)O[C@H](C)C[C@@H]2N(C)C(=O)N(C)c2ccccc2)c1` [Example C-37], for which the “IL-1ß OS of LPS” value in the test with IL-1β is 16 µM. The IC50 in the test with IL-6 was below 1 µM; with TNF-α it was 5 µM.
With `CCCNC[C@]1(O)[C@H](C)O[C@@H](O[C@H]2[C@H](C)[C@@H](O[C@@H]3O[C@H](C)C[C@H](NC)[C@H]3Oc3ccc(OCC)cc3)[C@](C)(O)C[C@@H](C)CN[C@H](C)[C@@H](O)[C@](C)(O)[C@@H](CC)OC(=O)[C@@H]2C)C[C@@]1(C)OC` [Example E-12], the “IL-1ß OS of LPS” value in the test with IL-1β was 40 µM. Moreover, the IC50 in the test on TNF-α was found to be 40 µM.
For the molecule `CC[C@H]1OC(=O)[C@H](C)[C@@H](O[C@H]2C[C@@](C)(OC)[C@](O)(CNCCN(C)C)[C@H](C)O2)[C@H](C)[C@@H](O[C@@H]2O[C@H](C)C[C@H](NC)[C@H]2Oc2ccccc2)[C@](C)(O)C[C@@H](C)CN[C@H](C)[C@@H](O)[C@]1(C)O` [Example E-129], the “IL-1ß OS of LPS” value in the test on IL-1β amounted to 250 µM. The IC50 in the test on TNF-α was 75 µM.
The matching figures for `CCCNC[C@]1(O)[C@H](C)O[C@@H](O[C@H]2[C@H](C)[C@@H](O[C@@H]3O[C@H](C)C[C@H](N(C)C)[C@H]3Oc3cnc(OC)nc3)[C@](C)(O)C[C@@H](C)CN[C@H](C)[C@@H](O)[C@](C)(O)[C@@H](CC)OC(=O)[C@@H]2C)C[C@@]1(C)OC` [Example E-27]: 100 µM and 65 µM.
For the molecule `CC[C@H]1OC(=O)[C@H](C)[C@@H](O[C@H]2C[C@@](C)(OC)[C@](O)(CNC3CCC3)[C@H](C)O2)[C@H](C)[C@@H](O[C@@H]2O[C@H](C)C[C@H](NC)[C@H]2Oc2ccccc2)[C@](C)(O)C[C@@H](C)CN[C@H](C)[C@@H](O)[C@]1(C)O` [Example E-126], the “IL-1ß OS of LPS” value in the test with IL-1β worked out at 40 µM. In the test on TNF-α, this molecule showed an IC50 of 14 µM.
For `CC[C@H]1OC(=O)[C@H](C)[C@@H](O[C@H]2C[C@@](C)(OC)[C@](O)(CNCC3CC3)[C@H](C)O2)[C@H](C)[C@@H](O[C@@H]2O[C@H](C)C[C@H](N(C)C)[C@H]2Oc2ccccc2)[C@](C)(O)C[C@@H](C)CN[C@H](C)[C@@H](O)[C@]1(C)O` [Example E-87], the “IL-1ß OS of LPS” value in the test with IL-1β was 16 µM and 26 µM. Besides, the IC50 with IL-6 is 18 µM and 19 µM.
As to `CCCNC[C@]1(O)[C@H](C)O[C@@H](O[C@H]2[C@H](C)[C@@H](O[C@@H]3O[C@H](C)C[C@H](NC)[C@H]3Oc3cc(OC)c(OC)c(OC)c3)[C@](C)(O)C[C@@H](C)CN[C@H](C)[C@@H](O)[C@](C)(O)[C@@H](CC)OC(=O)[C@@H]2C)C[C@@]1(C)OC` [Example E-11], the “IL-1ß OS of LPS” value with IL-1β came to 250 µM. Besides, the IC50 with TNF-α is 70 µM.
The matching figures for `CCCNC[C@]1(O)[C@H](C)O[C@@H](O[C@H]2[C@H](C)[C@@H](O[C@@H]3O[C@H](C)C[C@H](N(C)C)[C@H]3Oc3ccc(F)cc3)[C@](C)(O)C[C@@H](C)CN[C@H](C)[C@@H](O)[C@](C)(O)[C@@H](CC)OC(=O)[C@@H]2C)C[C@@]1(C)OC` [Example E-48]: 40 µM and 13 µM.
In the case of `CCCNC[C@]1(O)[C@H](C)O[C@@H](O[C@H]2[C@H](C)[C@@H](O[C@@H]3O[C@H](C)C[C@H](NC)[C@H]3Oc3cccc(OC)c3)[C@](C)(O)C[C@@H](C)CN[C@H](C)[C@@H](O)[C@](C)(O)[C@@H](CC)OC(=O)[C@@H]2C)C[C@@]1(C)OC` [Example E-94], the “IL-1ß OS of LPS” value with IL-1β was 40 µM. The IC50 in the test on TNF-α was 30 µM.
On to `CCCNC[C@]1(O)[C@H](C)O[C@@H](O[C@H]2[C@H](C)[C@@H](O[C@@H]3O[C@H](C)C[C@H](NC)[C@H]3Oc3ccc(OC)c(F)c3)[C@](C)(O)C[C@@H](C)CN[C@H](C)[C@@H](O)[C@](C)(O)[C@@H](CC)OC(=O)[C@@H]2C)C[C@@]1(C)OC` [Example E-10], for which, in the test with IL-1β, the “IL-1ß OS of LPS” value was found to be 40 µM. Inhibition in the test with TNF-α was half-maximal at 30 µM (IC50).
Turning to `CC[C@H]1OC(=O)[C@H](C)[C@@H](O)[C@H](C)[C@@H](O[C@@H]2O[C@H](C)C[C@H](N(C)C(=O)N(C)c3ccccc3)[C@H]2Oc2ccc(F)c(C(F)(F)F)c2)[C@](C)(O)C[C@@H](C)CN(C)[C@H](C)[C@@H](O)[C@]1(C)O` [Example C-10], the “IL-1ß OS of LPS” value in the test on IL-1β is 40 µM. In the test on TNF-α, 22 µM corresponded to half-maximal inhibition (IC50).
On to `CC[C@H]1OC(=O)[C@H](C)[C@@H](O[C@H]2C[C@@](C)(OC)[C@](O)(CNn3cccn3)[C@H](C)O2)[C@H](C)[C@@H](O[C@@H]2O[C@H](C)C[C@H](NC)[C@H]2Oc2ccccc2)[C@](C)(O)C[C@@H](C)CN[C@H](C)[C@@H](O)[C@]1(C)O` [Example E-139], for which the “IL-1ß OS of LPS” value with IL-1β was determined as 6 µM. The molecule also showed an IC50 in the test with TNF-α of 5 µM.
